Laboratory results: patent publication US11053235B2, “Substituted 1,4-dihydropyrimidines for the treatment of HBV infection or HBV-induced diseases” (Janssen Sciences Ireland Unlimited Company, priority 2018, dated 2021)

Tests used:
HBV = assay: Anti-viral assay in HepG2.2.15 cells: HBV inhibitory activity (HBV DNA in culture medium by q-PCR); format: cell-based; settings: Hepatitis B virus, HepG2.2.15, 144 h, HepG2.2.15 cells, 6 days treatment, HBV DNA in culture medium by q-PCR, highest concentration 10 uM; read-out: EC50
Text: (§1) Example 2: Anti-Viral Assay in HepG2.2.15 Cells
(§2) 1.1. Cell Line • HepG2.2.15 (the HepG2.2.15 cell line can be produced by transfection of the HepG2 cell line as described in Sells, Chen, and Acs 1987 (Proc. Natl. Acad. Sci. USA 84:1005-1009), and the HepG2 cell line is available from ATCC® under number HB-8065™). Reagents • DMEM/F12 (INVITROGEN-11330032) • FBS (GIBCO-10099-141) • Dimethyl sulfoxide(DMSO) (SIGMA-D2650) • Penicillin-streptomycin solution (HYCLONE-SV30010) • NEAA (INVITROGEN-1114050) • L-Glutamine (INVITROGEN-25030081) • Geneticin Selective Antibiotic (G418, 500 mg/ml) (INVITROGEN-10131027) • Trypsinase digestion solution (INVITROGEN-25300062) • CCK8 (BIOLOTE-35004) • QIAamp 96 DNA Blood Kit (12) (QIAGEN-51162) • FastStart Universal Probe Mast Mix (ROCHE-04914058001)
(§3) 2.1. HBV Inhibitory Activity and Cytotoxicity Determination
(§4) Seed the cell HepG2.2.15 cells into 96-well plate in 2% FBS culture medium at the density of 40,000 cells/well and 5,000 cells/well for HBV inhibitory activity and cytotoxicity determination, respectively. After seeding, incubate the cell plates at 37° C., 5% CO2 overnight. The next day, medium containing compounds is added to the cell to treat the cells for 6 days with medium refreshed once in the middle of the treatment. 8 dose points with 3 folds dilution of each compound were adopted and the highest concentration of the compounds is 10 uM and 100 uM for HBV inhibitory activity and cytotoxicity determination, respectively.
The HBV DAN change in the cell culture medium induced by the compounds is measured by q-PCR method. Briefly, the HBV DNA in the culture medium is extracted using QIAamp 96 DNA Blood Kit according to the manual and then quantified by q-PCR using the primers and probe in the table below.
(§5) EC50 and CC50 values are calculated by the GRAPHPAD PRISM software.

[1] = Cytotoxicity determination in HepG2.2.15 cells (CCK-8); format: cell-based; settings: human, 6 days treatment, CCK-8, highest concentration 100 uM
Text: as §1, §2, §3, §4
After 6 days of compounds treatment, add 20 μl CCK-8 reagents to each well of cytotoxicity assay plates, incubate the plate at 37° C., 5% CO2 for 2.5 h and measure the absorbance at 450 nm wavelength, at the same time read the absorbance at 630 nm wavelength as reference.
as §5

Structure (SMILES)	EC50 (HBV) [µM]	CC50 at 6 days [1] [µM]
COC(=O)C1=C([C@H]2CC[C@H](c3nc(CC(=O)O)co3)CC2)NC(c2nccs2)=NC1c1ccc(F)cc1Cl (single isomer, unassigned) [Compound I-17-A, (trans)-2-(2-(4-(6-(2-Chloro-4-fluorophenyl)-5-(methoxycarbonyl)-2-(thiazol-2-yl)-3,6-dihydropyrimidin-4-yl)cyclohexyl)oxazol-4-yl)acetic Acid]	0.014	25.7
COC(=O)C1=C([C@H]2CC[C@H](c3nc(CC(=O)O)co3)CC2)NC(c2nccs2)=NC1c1ccc(F)cc1Br (single isomer, unassigned) [Compound I-18-A, (trans)-2-(2-(4-(6-(2-Bromo-4-fluorophenyl)-5-(methoxycarbonyl)-2-(thiazol-2-yl)-3,6-dihydropyrimidin-4-yl)cyclohexyl)oxazol-4-yl)acetic Acid]	0.007	15.3
COC(=O)C1=C([C@H]2CC[C@H](c3nc(CC(=O)O)co3)CC2)NC(c2nccs2)=NC1c1cccc(F)c1Br (single isomer, unassigned) [Compound I-19-B]	0.036	15.2
COC(=O)C1=C([C@H]2CC[C@H](c3nc(CC(=O)O)co3)CC2)NC(c2nccs2)=NC1c1cccc(F)c1Cl (single isomer, unassigned) [Compound I-20-B, (trans)-2-(2-(4-(6-(2-Chloro-3-fluorophenyl)-5-(methoxycarbonyl)-2-(thiazol-2-yl)-3,6-dihydropyrimidin-4-yl)cyclohexyl)oxazol-4-yl)acetic Acid]	0.03	7.21
COC(=O)C1=C([C@H]2CC[C@H](c3nc(CC(=O)O)co3)CC2)NC(c2nccs2)=NC1c1cccc(F)c1C (single isomer, unassigned) [Compound I-21-B, (trans)-2-(2-(4-(6-(3-Fluoro-2-methylphenyl)-5-(methoxycarbonyl)-2-(thiazol-2-yl)-3,6-dihydropyrimidin-4-yl)cyclohexyl)oxazol-4-yl)acetic Acid]	0.057	8.04
COC(=O)C1=C([C@H]2CC[C@H](c3nc(CC(=O)O)c(C)o3)CC2)NC(c2nccs2)=NC1c1ccc(F)c(F)c1Cl (single isomer, unassigned) [Compound I-22-B, (trans)-2-(2-(4-(6-(2-Chloro-3,4-difluorophenyl)-5-(methoxycarbonyl)-2-(thiazol-2-yl)-3,6-dihydropyrimidin-4-yl)cyclohexyl)-5-methyloxazol-4-yl)acetic Acid]	0.015	7.68
CCOC(=O)C1=C([C@H]2CC[C@H](c3nc(CC(=O)O)co3)CC2)NC(c2nccs2)=NC1c1ccc(F)c(F)c1Cl (single isomer, unassigned) [Compound I-23-B, (trans)-2-(2-(4-(6-(2-Chloro-3,4-difluorophenyl)-5-(ethoxycarbonyl)-2-(thiazol-2-yl)-3,6-dihydropyrimidin-4-yl)cyclohexyl)oxazol-4-yl)acetic Acid]	0.013	5.48
CCOC(=O)C1=C([C@H]2CC[C@H](c3nc(CCC(=O)O)co3)CC2)NC(c2nccs2)=NC1c1ccc(F)c(F)c1Cl (single isomer, unassigned) [Compound I-24-A, (trans)-3-(2-(4-(6-(2-Chloro-3,4-difluorophenyl)-5-(ethoxycarbonyl)-2-(thiazol-2-yl)-3,6-dihydropyrimidin-4-yl)cyclohexyl)oxazol-4-yl)propanoic Acid]	< 0.0046	6.79
COC(=O)C1=C([C@H]2CC[C@H](c3nc(CC(C)(C)C(=O)O)co3)CC2)NC(c2nccs2)=NC1c1ccc(F)c(F)c1Cl (single isomer, unassigned) [Compound I-25-B, (trans)-3-(2-(4-(6-(2-Chloro-3,4-difluorophenyl)-5-(methoxycarbonyl)-2-(thiazol-2-yl)-3,6-dihydropyrimidin-4-yl)cyclohexyl)oxazol-4-yl)-2,2-dimethylpropanoic acid]	0.0061	7.9
